Experimental data taken from ChEMBL document CHEMBL3046727, “Antifungal and insect antifeedant 2-phenylethanol esters from the liverwort Balantiopsis cancellata from Chile” (J Agric Food Chem, 2005).
Active and inactive are the calls of the source. No cut-off for these calls is given here.

Experiments:
Spodoptera littoralis = experiment: Feeding deterrence in Spodoptera littoralis in compound treated lettuce disk assessed as feeding ratio measured as area consumed of treated disks per area consumed of the control disk at 20 ug/disk by disk choice assay; type: functional
Artemia salina = experiment: Toxicity in Artemia salina (brine shrimp) measured after 24 hr; type: organism-based; conditions: in vivo
Cladosporium herbarum [1] = experiment: Antifungal activity against Cladosporium herbarum assessed as growth inhibition at 23 degC measured after 72 hr; type: functional
Cladosporium herbarum [2] = experiment: Antifungal activity against Cladosporium herbarum assessed as growth inhibition at 0.006 mg/mL at 23 degC measured after 72 hr; type: functional, organism-based

Structure (SMILES)	Ratio (Spodoptera littoralis)	LC50 (Artemia salina)	MIC (Cladosporium herbarum [1])	growth inhibition (GI) (Cladosporium herbarum [2])
O=C(/C=C/c1ccccc1)OCCc1ccccc1 [PHENETHYL CINNAMATE]	0.96	< 2.5 ppm		
O=C(OCCc1ccccc1)c1ccccc1 [PHENETHYL BENZOATE]	0.56	< 2.5 ppm	0.1 mg	
O=C(/C=C\c1ccccc1)OCCc1ccccc1	0.5	< 2.5 ppm		
Cl[C@H]1[C@H](Cl)[C@@H](Cl)[C@@H](Cl)[C@H](Cl)[C@H]1Cl [LINDANE]		7.2 ppm		
O=C1C2CC=CCC2C(=O)N1SC(Cl)(Cl)Cl (configuration not stated) [CAPTAN]			0.02 mg	
CS/C=C/C(=O)OCCc1ccccc1 [ISOTACHIN B]	0.44	< 2.5 ppm	0.006 mg	Active
CC(=O)N1CCN(c2ccc(OCC3COC(Cn4ccnc4)(c4ccc(Cl)cc4Cl)O3)cc2)CC1 (configuration not stated) [KETOCONAZOLE]			0.01 mg	
O=C(OC[C@H](O)c1ccccc1)c1ccccc1	0.73	7.4 ppm	0.05 mg	
